# Test results: patent publication US4996225A, “Tri-phenyl alkane derivatives and their oestrogenic, anti-oestrogenic and progestanic uses” (Farmos Group Ltd., priority 1982, dated 1991)
# “Also recorded” adds a separate entry of the source.
# Assays:
# rat prostatic carcinoma = assay: antitumour effect against transplantable prostatic carcinoma; assay type: in vivo; conditions: 1 mg/kg, 12 days' treatment
# Text: The anti-tumour effect was investigated in vivo against DMBA-induced rat mammary adenocarcinomas, transplantable mammary and ovarial adenocarcinoma and transplantable prostatic squamous cell carcinoma by the following methods: The activity of the molecules against other tumours was studied by administering the molecules by stomach tube to animals implanted with transplantable uterus sarcoma (mice) or prostatic adenocarcinoma (rats). Daily or twice weekly administration schedules were employed. NMRI mice (about 20 g, females) and Fischer 344 rats (about 200 g, males) were used. Estramustine phosphate served as positive control. Transplantable rat mammary adenocarcinoma was developed by inoculating pieces of DMBA-induced carcinomas subcutaneously to healthy mature female rats. A tumour which expressed malignant growth was selected for further transplantations. Other transplantable tumours were inoculated subcutaneously as washed cell suspension (10^7 cells/animal).
# immature mouse uterus [1] = assay: oestrogenic effect, uterus weight of immature mice; assay type: in vivo; conditions: up to 5 mg/kg
# immature mouse uterus [2] = assay: progestanic effect, uterus weight of immature mice (alone or with medroxyprogesterone acetate); assay type: in vivo; set-up: reduction in the weight of a mouse uterus, given alone / reduction in the weight of uterus with medroxyprogesterone / reduction in the weights of mice uterus, given alone: concentration or dose not given beside the values
# [3] = system: MCF-7 cell line (human mammary adenocarcinoma); assay: anti-tumour effect in vitro, growth of MCF-7 cell line (bioluminescence assay, intracellular ATP); assay type: cell-based; conditions: read-out: Antitumour effect against MCF-7 cell line (IC50 = concentration of compound where 50% inhibition of cell growth could be seen)
# Procedure: The anti-tumour effect was studied in vitro as follows:
# The amount of living cells after 4 h, 24 h and 48 h incubations were determined by bioluminescence assay (intracellular ATP determination).
# inhibition of cell growth could be seen.
# [4] = system: DMBA-induced rat mammary adenocarcinomas; assay: antitumour effect in vivo against DMBA-induced rat mammary adenocarcinoma; conditions: compared with compound 7
# oestrogen receptors = biological target: T1, oestrogen receptors (Rattus norvegicus, UniProt P06211); assay: affinity for oestrogen receptors, competition with 3H-17-β-estradiol in rat uterus cytosol (dextran-charcoal method); assay type: binding; conditions: read-out: Estrogen receptor affinity (concentration of compound where 50% competition (inhibition) with 3H-estradiol occurred)
# T1 construct: rat uterus cytosol preparation; from tissue; host or cells: rat uterus cytosol
# T1 sequence (P06211 1-600): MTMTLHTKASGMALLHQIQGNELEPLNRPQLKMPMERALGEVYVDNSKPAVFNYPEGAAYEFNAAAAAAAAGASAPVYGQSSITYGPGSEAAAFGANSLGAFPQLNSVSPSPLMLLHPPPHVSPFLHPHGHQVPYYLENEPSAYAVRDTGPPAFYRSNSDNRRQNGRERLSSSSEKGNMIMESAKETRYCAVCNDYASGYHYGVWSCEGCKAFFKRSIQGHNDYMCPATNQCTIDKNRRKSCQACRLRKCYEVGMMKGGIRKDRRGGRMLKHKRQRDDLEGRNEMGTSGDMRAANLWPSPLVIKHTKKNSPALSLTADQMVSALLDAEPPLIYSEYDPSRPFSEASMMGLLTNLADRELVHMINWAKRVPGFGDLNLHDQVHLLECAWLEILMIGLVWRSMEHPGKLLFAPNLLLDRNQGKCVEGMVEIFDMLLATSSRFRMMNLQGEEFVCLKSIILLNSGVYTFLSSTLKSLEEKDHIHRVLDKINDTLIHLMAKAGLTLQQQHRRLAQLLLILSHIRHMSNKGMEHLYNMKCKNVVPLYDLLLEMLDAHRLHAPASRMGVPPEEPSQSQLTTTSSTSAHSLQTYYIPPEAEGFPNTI
# Procedure: The affinity of the new compounds for oestrogen receptors was determined by the ability to compete with ^3 H-labelled 17-β-estradiol in rat uterus cytosol preparation. After incubation, receptor-bound and receptor-unbound ligands were separated by a known dextrancharcoal method.
# [5] = system: estradiol induced weight increase in immature mouse uterus; assay: antiestrogenic effect, inhibition of oestrogen-induced uterus weight increase in immature mice; assay type: in vivo
# [6] = with medroxyprogesterone 0.06 mg/kg
structure (smiles),measurement,setting,value
"Oc1ccc([C@@]2(c3ccccc3)OCC[C@@H]2c2ccccc2)cc1 (relative stereo) [Compound 2, 2,3-diphenyl-2-(4-hydroxyphenyl)tetrahydrofuran]",size of prostatic tumour smaller than that of control,rat prostatic carcinoma,29%
same,estrogenic effect of their own (in words),immature mouse uterus [1],no estrogenic effect of their own; also recorded: no antiestrogenic or estrogenic effect of its own
same,decrease of weight of mouse uterus,immature mouse uterus [2]; 0.05 mg/kg,50%
same,effect given alone: progestanic (in words),immature mouse uterus [2]; given alone,progestanic
same,"reduction in the weights of mice uterus, given alone","immature mouse uterus [2]; given alone, Table 2A",50%
same,progestanic effect (in words),immature mouse uterus [2]; immature mouse uterus,could purely be considered to be due to its progestanic effect
same,interaction with medroxyprogesterone (in words),immature mouse uterus [2]; with medroxyprogesterone,synergistic effect with medroxyprogesterone
same,effect with medroxyprogesterone (in words),immature mouse uterus [2]; [6],synergistic
same,"reduction in the weights of mice uterus with medroxyprogesterone, compared to control",immature mouse uterus [2]; [6],53%
same,IC50,[3],5000 to 10000 nM
same,antitumour effect against DMBA-induced mammary cancer (in words),[4],Antitumour effect less than that of compound 7
same,IC50,oestrogen receptors,100 to 1000 nM
same,antiestrogenic effect of its own (in words),[5]; up to 5 mg/kg,no antiestrogenic or estrogenic effect of its own
same,effect with estradiol (in words),[5]; with estradiol 0.05 mg/kg,no synergism
